Among the data in publication PMC6271849, “Quantitative Analysis of the Flavonoid Glycosides and Terpene Trilactones in the Extract of Ginkgo biloba and Evaluation of Their Inhibitory Activity towards Fibril Formation of β-Amyloid Peptide” (Molecules, 2014) are IC50 values, retold here.

T1 sequence (P05067 672-713 limits assumed): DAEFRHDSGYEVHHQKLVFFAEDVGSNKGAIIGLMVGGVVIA

The experiment addresses T1, amyloid β peptide (Aβ42) (Homo sapiens, UniProt P05067).
T1 construct: gene APP; Aβ42 peptide
Briefly: biochemical.
The term IC50 denotes the concentration that inhibits the measured activity by half. The low end stands for greater potency, the high end for weaker potency. As to `C[C@@H]1O[C@@H](OC[C@H]2O[C@@H](Oc3c(-c4ccc(O)c(O)c4)oc4cc(O)cc(O)c4c3=O)[C@H](O)[C@@H](O)[C@@H]2O)[C@H](O)[C@H](O)[C@H]1O` [compound 1, quercetin 3-O-β-D-rutinoside], the IC50 worked out at 33 ± 4.84 µM. In the case of `C[C@@H]1O[C@@H](Oc2c(-c3ccc(O)c(O)c3)oc3cc(O)cc(O)c3c2=O)[C@H](O[C@@H]2O[C@H](CO)[C@@H](O)[C@H](O)[C@H]2O)[C@H](O)[C@H]1O` [compound 2, quercetin 3-O-α-L-(β-D-glucopyranosyl)-(1,2)-rhamnopyranoside], the midpoint of inhibition, the IC50, lay at 67.1 ± 11.7 µM. As to `C[C@@H]1O[C@@H](Oc2c(-c3ccc(O)c(O)c3)oc3cc(O)cc(O)c3c2=O)[C@H](O[C@@H]2O[C@H](COC(=O)/C=C/c3ccc(O)cc3)[C@@H](O)[C@H](O)[C@H]2O)[C@H](O)[C@H]1O` [compound 6, quercetin 3-O-α-(6′′′-p-coumaroylglucopyranosyl-β-1,2-rhamnopyranoside)], half-maximal inhibition (IC50) was put at 32.6 ± 4.83 µM.
